ChEMBL document CHEMBL5678816, “A Next-Generation TRK Kinase Inhibitor Overcomes Acquired Resistance to Prior TRK Kinase Inhibition in Patients with TRK Fusion-Positive Solid Tumors” (Cancer Discov, 2017)
The source made the active and inactive calls. The calls are words filed in the database; no cut-off is given here.

Tests used:
[1] = molecular target: CDK3/Cyclin E (Homo sapiens) (UniProt P24864+Q00526); assay: Inhibition of CDK3/cyclinE (unknown origin) at 1 uM in presence of ATP relative to control; values are per cent of control
[2] = tested on: KATO III stomach cancer cell line; assay: Inhibition of cell proliferation in human KATO III stomach cancer cell line upto 10 umol/L incubated for 72 hrs by DAPI staining based analysis; assay type: functional; conditions: dose <= 10.0 µmol/L
[3] = tested on: CAMA-1; assay: Inhibition of cell proliferation in human CAMA-1 cells upto 10 umol/L incubated for 72 hrs by DAPI staining based analysis; assay type: functional; conditions: dose <= 10.0 µmol/L
[4] = molecular target: Ribosomal protein S6 kinase alpha-6 (Homo sapiens) (UniProt Q9UK32); assay: Inhibition of Rsk4 (unknown origin) at 1 uM in presence of ATP relative to control; values are per cent of control
[5] = molecular target: Focal adhesion kinase 1 (Homo sapiens) (UniProt Q05397); assay: Inhibition of FAK (unknown origin) at 1 uM in presence of ATP relative to control; values are per cent of control
[6] = Cmin in adult patient with recurrent LMNA-NTRK1 rearranged colorectal cancer at 100 mg administered twice a day as powder-in-capsule or liquid formulation for 15 day and measured 10 hrs post dose by LC-MS/MS analysis; assay type: ADME; conditions: human, in vivo, po, read-out: Cmin
[7] = Clearance in monkey at 1 mg/kg, iv administered as 20% hydroxypropyl-beta-cyclodextrin formulation by LC-MS analysis; assay type: ADME, organism-based, Macaca mulatta; conditions: rhesus monkey, in vivo
[8] = tested on: FaDu; assay: Inhibition of cell proliferation in human FaDu cells upto 10 umol/L incubated for 72 hrs by DAPI staining based analysis; assay type: functional; conditions: dose <= 10.0 µmol/L
[9] = molecular target: Insulin receptor (Homo sapiens) (UniProt P06213); assay: Inhibition of Activated IR (unknown origin) at 1 uM in presence of ATP relative to control; values are per cent of control
[10] = molecular target: Protein kinase C delta type (Homo sapiens) (UniProt Q05655); assay: Inhibition of PKCdelta (unknown origin) at 1 uM in presence of ATP relative to control; values are per cent of control
[11] = tested on: HT-1376; assay: Inhibition of cell proliferation in human HT-1376 cells upto 10 umol/L incubated for 72 hrs by DAPI staining based analysis; assay type: functional; conditions: dose <= 10.0 µmol/L
[12] = molecular target: Proto-oncogene tyrosine-protein kinase Src (Homo sapiens) (UniProt P12931); assay: Inhibition of SrC (unknown origin) at 1 uM in presence of ATP relative to control; values are per cent of control
[13] = molecular target: Interleukin-1 receptor-associated kinase 1 (Homo sapiens) (UniProt P51617); assay: Inhibition of IRAK1 (unknown origin) at 1 uM in presence of ATP relative to control; values are per cent of control
[14] = tested on: HT-29; assay: Inhibition of cell proliferation in human HT-29 cells upto 10 umol/L incubated for 72 hrs by DAPI staining based analysis; assay type: functional; conditions: dose <= 10.0 µmol/L
[15] = molecular target: Death-associated protein kinase 3 (Homo sapiens) (UniProt O43293); assay: Inhibition of DAPK3 (unknown origin) at 1 uM in presence of ATP relative to control; values are per cent of control
[16] = tested on: BT-20; assay: Inhibition of cell proliferation in human BT-20 cells upto 10 umol/L incubated for 72 hrs by DAPI staining based analysis; assay type: functional; conditions: dose <= 10.0 µmol/L
[17] = tested on: EFM-19; assay: Inhibition of cell proliferation in human EFM-19 cells upto 10 umol/L incubated for 72 hrs by DAPI staining based analysis; assay type: functional; conditions: dose <= 10.0 µmol/L
[18] = molecular target: Protein kinase C beta type (Homo sapiens) (UniProt P05771); assay: Inhibition of PKCbetal (unknown origin) at 1 uM in presence of ATP relative to control; values are per cent of control
[19] = tested on: JeKo-1; assay: Inhibition of cell proliferation in human JeKo-1 cells upto 10 umol/L incubated for 72 hrs by DAPI staining based analysis; assay type: functional; conditions: dose <= 10.0 µmol/L
[20] = molecular target: Serine/threonine-protein kinase BRSK1 (Homo sapiens) (UniProt Q8TDC3); assay: Inhibition of BrSK1 (unknown origin) at 1 uM in presence of ATP relative to control; values are per cent of control
[21] = molecular target: Serine/threonine-protein kinase 17A (Homo sapiens) (UniProt Q9UEE5); assay: Inhibition of DRAK1 (unknown origin) at 1 uM in presence of ATP relative to control; values are per cent of control
[22] = molecular target: Serine/threonine-protein kinase PLK2 (Homo sapiens) (UniProt Q9NYY3); assay: Inhibition of Plk2 (unknown origin) at 1 uM in presence of ATP relative to control; values are per cent of control
[23] = species on record: Homo sapiens; assay: Inhibition of PKCgamma (unknown origin) at 1 uM in presence of ATP relative to control; values are per cent of control
[24] = AUC in pediatric patient with recurrent ETV6-NTRK3-rearranged infantile fibrosarcoma at 100 mg administered twice a day as liquid formulation for 29 day by LC-MS/MS analysis; assay type: ADME; conditions: human, in vivo
[25] = molecular target: Ephrin type-A receptor 1 (Homo sapiens) (UniProt P21709); assay: Inhibition of EphA1 (unknown origin) at 1 uM in presence of ATP relative to control; values are per cent of control
[26] = molecular target: Angiopoietin-1 receptor (Homo sapiens) (UniProt Q02763); assay: Inhibition of Tie2 (unknown origin) at 1 uM in presence of ATP relative to control; values are per cent of control
[27] = Cmax in adult patient with recurrent LMNA-NTRK1 rearranged colorectal cancer at 50 mg administered twice a day as powder-in-capsule or liquid formulation for 1 day by LC-MS/MS analysis; assay type: ADME; conditions: human, in vivo, po
[28] = molecular target: Misshapen-like kinase 1 (Homo sapiens) (UniProt Q8N4C8); assay: Inhibition of MINK (unknown origin) at 1 uM in presence of ATP relative to control; values are per cent of control
[29] = tested on: SK-N-FI; assay: Inhibition of cell proliferation in human SK-N-FI cells upto 10 umol/L incubated for 72 hrs by DAPI staining based analysis; assay type: functional; conditions: dose <= 10.0 µmol/L
[30] = tested on: DU-145; assay: Inhibition of cell proliferation in human DU-145 cells upto 10 umol/L incubated for 72 hrs by DAPI staining based analysis; assay type: functional; conditions: dose <= 10.0 µmol/L
[31] = AUC in pediatric patient with recurrent ETV6-NTRK3-rearranged infantile fibrosarcoma at 60 mg administered twice a day as liquid formulation for 8 day by LC-MS/MS analysis; assay type: ADME; conditions: human, in vivo
[32] = tested on: A101D; assay: Inhibition of cell proliferation in human A101D cells upto 10 umol/L incubated for 72 hrs by DAPI staining based analysis; assay type: functional; conditions: dose <= 10.0 µmol/L

Sequence of Serine/threonine-protein kinase 17A (Homo sapiens) (Q9UEE5 whole entry): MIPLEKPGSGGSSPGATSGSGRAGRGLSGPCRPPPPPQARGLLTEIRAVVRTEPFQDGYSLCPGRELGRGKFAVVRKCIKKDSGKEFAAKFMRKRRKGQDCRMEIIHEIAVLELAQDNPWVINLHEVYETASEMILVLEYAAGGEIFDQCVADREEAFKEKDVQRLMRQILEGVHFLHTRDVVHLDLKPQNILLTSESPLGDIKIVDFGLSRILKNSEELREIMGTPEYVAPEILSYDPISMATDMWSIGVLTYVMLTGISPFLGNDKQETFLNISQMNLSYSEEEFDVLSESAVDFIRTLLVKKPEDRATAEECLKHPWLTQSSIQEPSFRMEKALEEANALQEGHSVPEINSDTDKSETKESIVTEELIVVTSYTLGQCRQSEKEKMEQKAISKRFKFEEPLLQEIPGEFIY
Sequence of CDK3/Cyclin E (Homo sapiens) (P24864 whole entry, looked up): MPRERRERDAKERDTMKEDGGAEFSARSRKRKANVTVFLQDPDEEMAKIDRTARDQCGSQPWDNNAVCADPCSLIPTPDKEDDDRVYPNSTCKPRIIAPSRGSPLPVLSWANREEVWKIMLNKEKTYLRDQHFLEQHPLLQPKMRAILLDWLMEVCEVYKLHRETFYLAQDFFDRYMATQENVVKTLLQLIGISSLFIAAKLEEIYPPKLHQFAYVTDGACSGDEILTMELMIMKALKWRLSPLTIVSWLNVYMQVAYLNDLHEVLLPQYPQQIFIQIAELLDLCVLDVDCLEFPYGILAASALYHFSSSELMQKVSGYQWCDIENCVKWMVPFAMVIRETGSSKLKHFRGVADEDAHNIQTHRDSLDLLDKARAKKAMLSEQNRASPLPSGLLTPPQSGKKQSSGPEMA
Sequence of CDK3/Cyclin E (Homo sapiens) (Q00526 whole entry, looked up): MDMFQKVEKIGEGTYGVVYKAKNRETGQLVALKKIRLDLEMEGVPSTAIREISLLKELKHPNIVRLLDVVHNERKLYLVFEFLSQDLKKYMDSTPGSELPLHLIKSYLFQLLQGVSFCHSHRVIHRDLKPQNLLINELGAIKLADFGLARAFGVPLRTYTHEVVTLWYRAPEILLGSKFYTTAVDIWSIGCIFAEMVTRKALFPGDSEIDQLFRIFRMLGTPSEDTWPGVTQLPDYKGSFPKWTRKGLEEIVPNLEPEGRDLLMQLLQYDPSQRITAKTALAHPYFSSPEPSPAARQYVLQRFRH
Sequence of Insulin receptor (Homo sapiens) (P06213 28-758 limits assumed): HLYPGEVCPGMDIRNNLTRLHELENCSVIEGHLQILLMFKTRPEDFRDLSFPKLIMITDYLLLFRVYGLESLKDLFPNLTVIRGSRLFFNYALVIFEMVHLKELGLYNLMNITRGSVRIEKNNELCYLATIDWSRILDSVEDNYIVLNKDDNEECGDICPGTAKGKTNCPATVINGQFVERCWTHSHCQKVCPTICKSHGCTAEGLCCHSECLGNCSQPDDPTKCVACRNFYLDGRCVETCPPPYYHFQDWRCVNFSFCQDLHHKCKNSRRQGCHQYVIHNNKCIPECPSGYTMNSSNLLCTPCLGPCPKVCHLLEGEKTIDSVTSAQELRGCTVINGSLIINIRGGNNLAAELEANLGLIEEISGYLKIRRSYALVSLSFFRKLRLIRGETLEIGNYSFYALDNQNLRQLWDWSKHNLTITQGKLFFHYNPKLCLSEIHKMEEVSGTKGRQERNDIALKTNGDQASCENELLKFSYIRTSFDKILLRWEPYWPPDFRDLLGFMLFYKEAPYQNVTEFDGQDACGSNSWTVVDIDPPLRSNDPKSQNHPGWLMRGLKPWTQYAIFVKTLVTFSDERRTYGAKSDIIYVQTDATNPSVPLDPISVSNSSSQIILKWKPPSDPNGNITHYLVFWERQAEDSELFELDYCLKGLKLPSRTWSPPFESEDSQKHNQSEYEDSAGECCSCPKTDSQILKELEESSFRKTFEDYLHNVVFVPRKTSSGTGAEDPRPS
Sequence of Insulin receptor (Homo sapiens) (P06213 763-1382 limits assumed): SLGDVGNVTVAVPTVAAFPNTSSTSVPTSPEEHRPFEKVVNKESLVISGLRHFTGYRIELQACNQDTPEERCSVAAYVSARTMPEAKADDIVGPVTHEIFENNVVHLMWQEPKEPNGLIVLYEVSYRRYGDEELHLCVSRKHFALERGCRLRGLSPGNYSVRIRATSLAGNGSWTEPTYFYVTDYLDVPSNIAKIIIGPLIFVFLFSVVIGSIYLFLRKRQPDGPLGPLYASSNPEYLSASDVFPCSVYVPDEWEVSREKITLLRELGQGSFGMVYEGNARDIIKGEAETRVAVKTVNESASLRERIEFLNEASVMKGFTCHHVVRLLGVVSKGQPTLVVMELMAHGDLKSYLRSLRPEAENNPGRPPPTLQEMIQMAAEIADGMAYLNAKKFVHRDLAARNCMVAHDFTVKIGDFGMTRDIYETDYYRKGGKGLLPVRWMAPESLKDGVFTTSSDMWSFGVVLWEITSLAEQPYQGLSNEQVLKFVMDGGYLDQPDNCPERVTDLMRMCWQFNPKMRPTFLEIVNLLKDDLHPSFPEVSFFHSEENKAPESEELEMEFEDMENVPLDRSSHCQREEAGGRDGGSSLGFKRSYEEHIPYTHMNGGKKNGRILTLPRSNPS
Sequence of Protein kinase C beta type (Homo sapiens) (P05771 2-671 limits assumed): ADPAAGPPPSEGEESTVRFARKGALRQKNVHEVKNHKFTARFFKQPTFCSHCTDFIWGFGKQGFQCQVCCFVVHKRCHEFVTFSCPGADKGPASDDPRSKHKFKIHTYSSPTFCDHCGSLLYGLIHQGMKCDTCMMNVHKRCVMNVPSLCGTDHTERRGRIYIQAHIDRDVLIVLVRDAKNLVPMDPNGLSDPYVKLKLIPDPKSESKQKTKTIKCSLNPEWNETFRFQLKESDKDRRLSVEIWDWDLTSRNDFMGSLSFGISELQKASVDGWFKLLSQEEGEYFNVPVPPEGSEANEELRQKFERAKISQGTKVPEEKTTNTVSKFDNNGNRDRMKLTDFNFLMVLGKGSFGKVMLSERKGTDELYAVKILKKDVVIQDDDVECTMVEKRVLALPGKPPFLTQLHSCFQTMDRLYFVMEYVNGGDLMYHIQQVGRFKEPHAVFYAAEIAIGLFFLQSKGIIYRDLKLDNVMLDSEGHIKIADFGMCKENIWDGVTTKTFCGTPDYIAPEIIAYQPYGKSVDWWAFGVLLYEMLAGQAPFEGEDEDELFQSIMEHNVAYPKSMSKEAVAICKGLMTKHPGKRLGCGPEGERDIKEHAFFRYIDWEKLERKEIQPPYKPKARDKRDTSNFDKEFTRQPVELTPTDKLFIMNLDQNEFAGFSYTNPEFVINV
Sequence of Proto-oncogene tyrosine-protein kinase Src (Homo sapiens) (P12931 2-536 limits assumed): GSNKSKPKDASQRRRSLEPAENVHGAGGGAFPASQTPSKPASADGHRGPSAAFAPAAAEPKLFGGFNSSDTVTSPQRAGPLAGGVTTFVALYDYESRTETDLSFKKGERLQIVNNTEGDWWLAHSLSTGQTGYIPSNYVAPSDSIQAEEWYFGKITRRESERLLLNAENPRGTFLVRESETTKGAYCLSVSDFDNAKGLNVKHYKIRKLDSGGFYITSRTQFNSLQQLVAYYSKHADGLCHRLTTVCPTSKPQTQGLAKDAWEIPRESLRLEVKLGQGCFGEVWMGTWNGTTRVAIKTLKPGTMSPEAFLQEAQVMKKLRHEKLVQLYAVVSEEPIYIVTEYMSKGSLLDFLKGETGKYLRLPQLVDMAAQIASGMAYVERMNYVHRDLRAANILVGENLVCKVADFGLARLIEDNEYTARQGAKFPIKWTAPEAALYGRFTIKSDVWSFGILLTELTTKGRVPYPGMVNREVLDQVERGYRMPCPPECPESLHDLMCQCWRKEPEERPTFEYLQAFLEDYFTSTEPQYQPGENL
Sequence of Angiopoietin-1 receptor (Homo sapiens) (Q02763 whole entry): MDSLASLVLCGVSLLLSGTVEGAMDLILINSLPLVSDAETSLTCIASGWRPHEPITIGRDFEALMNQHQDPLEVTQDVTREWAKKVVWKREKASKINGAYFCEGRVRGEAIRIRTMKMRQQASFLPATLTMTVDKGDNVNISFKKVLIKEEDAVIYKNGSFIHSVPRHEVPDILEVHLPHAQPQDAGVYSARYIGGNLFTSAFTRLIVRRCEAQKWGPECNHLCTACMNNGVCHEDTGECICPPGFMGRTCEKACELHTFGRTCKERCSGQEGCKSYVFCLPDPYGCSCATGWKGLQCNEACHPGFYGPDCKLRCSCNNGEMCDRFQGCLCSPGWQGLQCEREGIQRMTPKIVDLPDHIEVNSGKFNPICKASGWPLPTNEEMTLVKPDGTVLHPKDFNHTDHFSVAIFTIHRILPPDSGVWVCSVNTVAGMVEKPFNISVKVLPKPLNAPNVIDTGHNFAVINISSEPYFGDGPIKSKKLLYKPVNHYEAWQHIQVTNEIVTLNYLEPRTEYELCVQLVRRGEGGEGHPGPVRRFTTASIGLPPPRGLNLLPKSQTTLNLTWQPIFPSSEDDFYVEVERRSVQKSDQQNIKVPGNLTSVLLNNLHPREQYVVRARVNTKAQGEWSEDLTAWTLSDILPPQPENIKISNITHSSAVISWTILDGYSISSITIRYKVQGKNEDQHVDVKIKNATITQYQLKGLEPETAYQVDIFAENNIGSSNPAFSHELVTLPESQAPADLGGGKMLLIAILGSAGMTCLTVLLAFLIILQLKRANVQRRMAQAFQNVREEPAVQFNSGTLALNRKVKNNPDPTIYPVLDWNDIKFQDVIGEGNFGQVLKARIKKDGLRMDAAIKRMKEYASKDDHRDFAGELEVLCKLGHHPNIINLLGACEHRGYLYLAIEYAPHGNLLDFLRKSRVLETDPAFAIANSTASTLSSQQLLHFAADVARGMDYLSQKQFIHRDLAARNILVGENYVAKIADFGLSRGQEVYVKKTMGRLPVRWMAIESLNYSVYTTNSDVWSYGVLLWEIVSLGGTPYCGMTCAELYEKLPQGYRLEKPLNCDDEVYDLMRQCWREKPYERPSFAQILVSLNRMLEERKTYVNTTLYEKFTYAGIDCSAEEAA

- residual activity [1]: 104%
- residual activity [4]: 127%
- residual activity [5]: 81%
- concentration at 370 h [6]: 7.78 ng/mL
- clearance [7]: 23.3 mL/min/kg
- residual activity [9]: 97%
- residual activity [10]: 108%
- residual activity [12]: 102%
- residual activity [13]: 106%
- residual activity [18]: 108%
- residual activity [20]: 108%
- residual activity [21]: 113%
- residual activity [22]: 95%
- residual activity [23]: 97.5%
- AUC at 696 h [24]: 4410 ng·h/mL
- residual activity [25]: 74%
- residual activity [26]: 119%
- Cmax [27]: 350 ng/mL
- residual activity [28]: 99.5%
- AUC at 192 h [31]: 2010 ng·h/mL
SMILES: C[C@@H]1CCc2ncc(F)cc2[C@H]2CCCN2c2ccn3ncc(c3n2)C(=O)N1 [SELITRECTINIB]
- inhibition [2]: inactive
- inhibition [3]: inactive
- inhibition [8]: inactive
- inhibition [11]: inactive
- inhibition [14]: inactive
- residual activity [15]: 120%
- inhibition [16]: inactive
- inhibition [17]: inactive
- inhibition [19]: inactive
- inhibition [29]: inactive
- inhibition [30]: inactive
- inhibition [32]: inactive
